What all share (format): cell-based
The subject of series [1] is Bel-7404 (human liver carcinoma). As to the kind of experiment: MTT antiproliferative/cytotoxicity assay, Bel-7404. The conditions noted are these: mean of three independent determinations. The protocol: (§1) Melting points were determined on an X4 apparatus (Beijing Tech Instrument Co. Ltd., Beijing, China) and were uncorrected. The ^1H and ^13C NMR spectra were recorded in CDCl3 on a Bruker AV-600 spectrometer at working frequencies of 600 and 150 MHz and a Bruker AV-300 spectrometer at working frequencies of 300 and 75 MHz, respectively. Chemical shifts are expressed in parts per million (δ) values and coupling constants (J) in Hertz. Infrared spectra were measured with a Thermo Scientific Nicolet IS-10 Spectrophotometer (Thermo Scientific, USA). HREIMS was measured on an Agilent 6210 TOFMS instrument (Agilent Technologies, USA). The cell proliferation assay was undertaken by a MTT method using 96-well plates on a […] MK3 analysis spectrometer (Thermo Scientific, Shanghai, China).
(§2) The detailed procedure had been reported in our previous work.

The subject of series [2] is HeLa (human cervical carcinoma). As to the kind of experiment: MTT antiproliferative/cytotoxicity assay, HeLa. The conditions noted are these: mean of three independent determinations. The protocol: as §1, §2
Series [3] in a line: MTT cytotoxicity assay, 293T normal cells. To be noted: human, HEK-293T normal kidney epithelial cells, mean of three independent determinations. The protocol: as §1, §2
(In general: Tetrazolium dyes change colour on reduction, which living cells bring about.)

Each structure is given as a SMILES string.

The text below walks through data of PMC5664251, “Synthesis and Cytotoxic Evaluation of Steroidal Copper (Cu (II)) Complexes” (Bioinorganic Chemistry and Applications, 2017).

As for `CC12CCC3c4ccc(O)cc4CCC3C1CCC2=NNC(N)=S` (centres unmarked) [Compound 1], the IC50 (commonly the point on the concentration scale where inhibition reaches its midpoint) in series [1] came to 19 µM; in series [2] it was 34 µM.
Consider `CC(=O)Oc1ccc2c(c1)CCC1C2CCC2(C)C(=NNC(N)=S)CCC12` (centres unmarked) [Compound 2], for which the IC50 in series [1] is more than 200 µM; in series [2], 42 µM; in series [3] it was more than 200 µM.
